# According to article PMC4774501 (Biomolecules & Therapeutics, 2016):
# Target: T1, vitamin D receptor (VDR) (Homo sapiens, UniProt P11473)
# T1 sequence (P11473 118-427): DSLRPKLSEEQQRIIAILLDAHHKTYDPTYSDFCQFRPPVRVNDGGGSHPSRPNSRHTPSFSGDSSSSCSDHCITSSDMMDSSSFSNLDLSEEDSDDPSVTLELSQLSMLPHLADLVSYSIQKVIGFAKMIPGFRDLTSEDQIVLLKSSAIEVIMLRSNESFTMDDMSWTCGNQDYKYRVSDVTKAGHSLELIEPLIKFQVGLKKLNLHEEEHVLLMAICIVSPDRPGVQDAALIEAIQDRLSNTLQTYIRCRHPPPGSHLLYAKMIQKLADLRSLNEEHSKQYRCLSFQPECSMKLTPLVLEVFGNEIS
# Experiment: intrinsic tryptophan fluorescence quenching titration
# Type: binding
smiles,measurement,value
O=c1c(O)c(-c2ccc(O)c(O)c2)oc2cc(O)cc(O)c12 [quercetin],Kd,21.1 ± 4.31 µM
